From patent publication US20250275991A1, “ORAL COMPLEMENT FACTOR D INHIBITORS” (BioCryst Pharmaceuticals, Inc, priority 2019, published 2025)

Molecular target: Factor D (Homo sapiens, UniProt P00746)
Experiment: Factor D esterolytic assay
Assay type: biochemical
Conditions: substrate Z-Lys-SBzl 1.29 mM, 100 mM HEPES, 500 mM NaCl, pH 7.5, 10% DMSO, tested a minimum of three times
Procedure, shortened: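 Human Factor D esterolytic assay in 100 mM HEPES, 500 mM NaCl, pH 7.5, 10% DMSO, with 1.29 mM Z-Lys-SBzl substrate. Released thiol detected with DTNB at 405 nm over 600 s, minus 690 nm background. Substrate added immediately or after room-temperature preincubation with compound. IC50 from percent inhibition relative to enzyme alone; ≥3 tests.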

Factor D, sequence (P00746 26-253): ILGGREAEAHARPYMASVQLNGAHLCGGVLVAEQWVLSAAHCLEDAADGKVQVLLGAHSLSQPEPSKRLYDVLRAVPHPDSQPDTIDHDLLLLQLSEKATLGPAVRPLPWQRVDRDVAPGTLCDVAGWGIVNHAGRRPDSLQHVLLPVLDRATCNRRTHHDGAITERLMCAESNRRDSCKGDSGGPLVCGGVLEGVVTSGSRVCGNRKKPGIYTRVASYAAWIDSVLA

## COCOc1c(COc2ccccc2CC(=O)O)cc(-c2cccc(CN)c2)c2occc12 [Compound 81h, 2-(2-((7-(3-(aminomethyl)phenyl)-4-(methoxymethoxy)benzofuran-5-yl)methoxy)phenyl)acetic acid]
  IC50: < 1 µM

## NCc1ccc(-c2nc(C(=O)Nc3ccccc3CC(=O)O)c3cccn3n2)cc1 [Compound 82g, 2-(2-(2-(4-(aminomethyl)phenyl)pyrrolo[2,1-f][1,2,4]triazine-4-carboxamido)phenyl)acetic acid]
  IC50: > 10 µM

## NCc1cccc(-c2cc(COc3ccccc3)cc3ccoc23)c1 [Compound 83b, (3-(5-(phenoxymethyl)benzofuran-7-yl)phenyl)methanamine]
  IC50: > 10 µM

## NC(=O)c1cc(-c2cc(COc3ccccc3CC(=O)O)cc3ccoc23)cs1 [Compound 84c, 2-(2-((7-(5-carbamoylthiophen-3-yl)benzofuran-5-yl)methoxy)phenyl)acetic acid]
  IC50: > 10 µM
